Laboratory results published in patent publication US10086039B2, “Lamin A, an activator of longevity/anti-aging SIRT1 protein” (THE UNIVERSITY OF HONG KONG, priority 2012, dated 2018).

Key:
Zmpste24−/− MEFs = experiment: SA-β-galactosidase senescence assay in MEFs; format: cell-based, mouse; details: resveratrol-treated vs saline-treated
Protocol: SA-β-galactosidase assay was performed using a Cellular Senescence Assay Kit (Chemicon International, CA, USA), following the manufacturer's instructions. For MEFs, resveratrol was supplemented in the complete medium at passage 4 and SA-β-galactosidase assay was performed at passage 6. To quantify SA-β-galactosidase staining, the blue-dyed precipitate was extracted with 100 μl DMSO and the absorbance at 415 nm was recorded.

p16ink4a = p16ink4a level in MEFs by Western blotting; format: cell-based, mouse; details: Zmpste24−/− MEFs
Protocol: Western blotting was performed as described previously (Liu et al., 2005). Relative band intensity was measured by IMAGE J® and normalized to corresponding wild-type or untreated controls as indicated.
As resveratrol enhances SIRT1 deacetylase activity by increasing its binding to lamin A, this Example examines the effects of resveratrol treatment on the early senescence in Zmpste24^−/− MEFs. […] As SIRT1 is more highly expressed in stem cells than in somatic differentiated cells and it is critical for maintaining stem cell self-renewal and function (Han et al., 2008; Lee et al., 2011; Saunders et al., 2010), we then tested effects of resveratrol on BMSCs.

[1] = target: T1, SIRT1 binding to prelamin A (Mus musculus, UniProt Q923E4); experiment: Prelamin A pull-down by anti-SIRT1 immunoprecipitates in BMSCs; format: cell-based; details: resveratrol 2 μM
T1 construct: endogenous in cells; host or cells: mouse bone marrow stromal cells (Zmpste24-/-)
T1 sequence (Q923E4 2-737 limits assumed): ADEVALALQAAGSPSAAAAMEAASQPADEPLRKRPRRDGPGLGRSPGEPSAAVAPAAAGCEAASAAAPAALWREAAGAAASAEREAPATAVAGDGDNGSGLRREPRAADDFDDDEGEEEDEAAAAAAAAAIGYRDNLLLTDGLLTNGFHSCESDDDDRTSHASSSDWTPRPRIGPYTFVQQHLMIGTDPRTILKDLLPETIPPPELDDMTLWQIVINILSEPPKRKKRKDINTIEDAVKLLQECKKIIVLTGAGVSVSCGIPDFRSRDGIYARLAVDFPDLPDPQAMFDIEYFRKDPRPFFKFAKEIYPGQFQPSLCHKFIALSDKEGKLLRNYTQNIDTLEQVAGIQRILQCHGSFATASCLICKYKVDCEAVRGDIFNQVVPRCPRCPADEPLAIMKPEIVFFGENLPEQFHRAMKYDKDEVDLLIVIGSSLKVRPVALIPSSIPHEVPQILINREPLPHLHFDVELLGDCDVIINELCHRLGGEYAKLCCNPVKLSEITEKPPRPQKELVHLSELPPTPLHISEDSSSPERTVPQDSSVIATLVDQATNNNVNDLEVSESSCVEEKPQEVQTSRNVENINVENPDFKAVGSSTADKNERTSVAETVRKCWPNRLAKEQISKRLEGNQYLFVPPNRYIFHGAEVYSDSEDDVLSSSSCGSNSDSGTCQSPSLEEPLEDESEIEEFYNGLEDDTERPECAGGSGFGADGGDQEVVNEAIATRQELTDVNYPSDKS
T1 sequence (P48678 1-662 partner limits assumed): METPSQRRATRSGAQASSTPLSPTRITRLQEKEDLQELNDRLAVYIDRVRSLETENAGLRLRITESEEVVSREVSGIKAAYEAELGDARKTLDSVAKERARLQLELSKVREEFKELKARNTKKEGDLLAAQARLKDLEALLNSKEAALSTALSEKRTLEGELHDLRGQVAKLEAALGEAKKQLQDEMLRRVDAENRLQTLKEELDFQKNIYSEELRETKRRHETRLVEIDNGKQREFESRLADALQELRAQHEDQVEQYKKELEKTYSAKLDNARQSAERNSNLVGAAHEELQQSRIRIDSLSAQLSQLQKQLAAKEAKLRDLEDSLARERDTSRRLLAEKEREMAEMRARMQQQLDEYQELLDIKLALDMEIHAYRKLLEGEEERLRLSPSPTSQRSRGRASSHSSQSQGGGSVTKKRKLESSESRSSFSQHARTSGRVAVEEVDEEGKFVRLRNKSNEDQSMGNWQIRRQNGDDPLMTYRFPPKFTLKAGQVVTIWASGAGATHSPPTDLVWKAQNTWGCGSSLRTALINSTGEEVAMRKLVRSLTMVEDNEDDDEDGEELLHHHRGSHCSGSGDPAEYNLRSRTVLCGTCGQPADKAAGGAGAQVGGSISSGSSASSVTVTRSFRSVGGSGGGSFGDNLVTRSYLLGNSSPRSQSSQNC
Protocol: (FIG. 4A) Resveratrol (10 μM) increased colony-forming capacity of Zmpste24^−/− BMSCs. Colony-forming assay was performed on freshly isolated bone marrow cells in 10 cm dishes in the presence and absence of resveratrol. (FIG. 4B) Colony number counting. […] Data represent mean±SEM, n=4. *P<0.05, RSV Vs Vehicle. (FIG. 4C) Left, level of prelamin A pull down by anti SIRT1 immunoprecipitates in BMSCs treated or untreated with resveratrol (2 μM) was determined by Immunoblotting; right, level of acetylated Foxo3a in resveratrol was assessed by Immunoblotting. (FIG. 4D) Levels of catalase and Gadd45α in SIRT1 or scramble siRNA treated Zmpste24^−/− BMSCs in the presence or absence of resveratrol (10 μM) determined by Western blotting. (FIG. 4E) Colony-forming capacity of Zmpste24^−/− BMSCs by SIRT1 or scramble knocking down in the presence or absence of resveratrol. […] Colony forming assay was done on freshly isolated cells in 6-well plates. (FIG. 4F) Quantification of (FIG. 4E). […] (FIG. 4gG Levels of H3K9ac and IR-induced-H2AX with or without ectopic SIRT1 in wild-type and Zmpste24 null BMSCs were assessed by Western blotting. (FIG. 4H) Ectopic SIRT1 increased the colony-forming capacity of Zmpste24^−/− and wild-type BMSCs. Colony-forming assay was performed on freshly isolated cells in 6 cm dishes. (FIG. 4I) Quantification of (FIG. 4H). Data represent mean±SEM, n=5. *P<0.05, SIRT1 Vs Mock. […]

Oc1ccc(C=Cc2cc(O)cc(O)c2)cc1 [resveratrol]
β-galactosidase activity (senescence) (Zmpste24−/− MEFs): no obvious difference
elevated levels of p16ink4a (p16ink4a): did not reduce
binding of SIRT1 to prelamin A [1]: increased the binding of SIRT1 to prelamin A
